Measurements as given in patent publication US10787640B2, “Producing mesodermal cell types and methods of using the same” (The Board of Trustees of the Leland Stanford Junior …, priority 2015, dated 2020).

Experiments:
Assay type in all cases: cell-based, human
[1] = test system: day 3 early somite progenitors; assay: Patterning of early somite progenitors into sclerotome or dermomyotome; settings: 21K with C59, 2-3 days
Procedure: Day 2 paraxial mesoderm was briefly washed (DMEM/F12) and further differentiated into day 3 early somite/somitomere precursors for 24 hours (1 μM A-83-01+250 nM LDN-193189+1 μM C59+500 nM PD0325901). Subsequently, day 3 early somites were dorsoventrally patterned into either ventral somites/sclerotome (5 nM 21K+1 μM C59) or dorsal somites/dermomyotome (3 μM CHIR99021+150 nM Vismodegib). Sclerotome induction was conducted for 48-72 hours (leading to day 5-6 ventral somite progenitors). […] Media was changed 24 hours for all steps. The Hedgehog agonist 21K, which has been previously described in, e.g., Brunton et al., 2009 the disclosure of which is incorporated herein by reference in its entirety, was commercially synthesized.
Day 3 early somites were briefly washed (DMEM/F12), treated with BMP4+CHIR99021+Vismodegib for 24 hours, washed again (DMEM/F12) and subsequently treated with CHIR99021 (3 μM)+21K (5 nM) for 24 hours. This day 5 dermomyotome was further empirically differentiated towards skeletal muscle-like progeny (using medium containing 2% horse serum, which has been previously described in, e.g., Xu et al. 2013, the disclosure of which is incorporated herein by reference in its entirety) for 12 days, yielding day 17 skeletal muscle-containing populations.
FIG. 11: A) To determine the length of time required for sclerotome differentiation, a qPCR timecourse was performed, encompassing undifferentiated hESCs (D0), day 2 hESC-derived paraxial mesoderm (D2 PXM), day 3 hESC-derived early somite progenitors, and hESC-derived day 3 early somite progenitors that were exposed to sclerotome inductive conditions (5 nM 21K+1 μM C59) for 24 or 48 hours. B) Description of EF1α-BCL2-T2A-GFP lentiviral construct (otherwise known as “C306”; top) and FACS plot of a stably-transduced polyclonal H9 hESC line with near-uniform expression of the BCL2-T2A-GFP transgene (green contour) by comparison to uncolored wild-type hESCs (bottom) (see above methods for details of derivation of the H9 BCL2-T2A-GFP hESC line). C) Higher-magnification picture of BCL2-T2A-GFP hESC-derived sclerotome ectopic bone grafts (originally described above in FIG. 4, panel E), showing that despite the near-ubiquitous expression of GFP throughout the ectopic bone graft (indicating its human provenance), the blood vessels are clearly GFP-negative and therefore presumably derived from the mouse host; scale bar=1 mm. […] L) Description of EF1a-BCL2-T2A-GFP lentiviral construct (otherwise known as “C306”; top) and FACS plot of a stably-transduced polyclonal H9 hESC line with near-uniform expression of the BCL2-T2A-GFP transgene (green contour) by comparison to uncolored wild-type hESCs (bottom) (see the methods described herein for details of derivation of the H9 BCL2-T2A-GFP hESC line). M) Description of UBC-Luciferase-T2A-tdTomato lentiviral construct (top); bioluminescent assay of cultured H9 UBC-Luciferase-T2A-tdTomato hESCs validates that these cells are luciferase-expressing in vitro (bottom).

[2] = test system: hESC-derived lateral mesoderm; assay: Lateral mesoderm patterning, qPCR
Procedure: Subsequently, day 1 anterior primitive streak was briefly washed (DMEM/F12) and differentiated towards day 2 paraxial mesoderm for 24 hours (1 μM A-83-01+3 μM CHIR99021+250 nM LDN-193189+20 ng/mL FGF2). Separately, day 1 mid primitive streak was differentiated towards day 2 lateral mesoderm for 24 hours (1 μM A-83-01+30 ng/mL BMP4+1 μM C59; with 2 μM SB-505124 sometimes used instead of A-83-01).
(§1) C) To reveal the possible identity of non-cardiac mesoderm lineages that were contaminating cardiac mesoderm-containing cultures, NKX2.5-GFP hESCs were differentiated towards mid primitive streak (day 1) and were differentiated towards a heterogeneous population containing cardiac mesoderm (day 3) by treatment with SB-505124+BMP4+C59 (without FGF2) on days 2-3 of differentiation. FACS was performed on day 3 to purify either NKX2.5-GFP^+ or NKX2.5-GFP^− cells (top subpanels) which were sorted for qPCR (bottom subpanels). Gene expression was normalized to expression of a gene in the NKX2.5-GFP^+ fraction (dotted line). D) Timecourse of gene expression in hESCs differentiating towards mid primitive streak and lateral mesoderm, with treatment by SB-505124+BMP4+C59 on days 2-3 of differentiation. […] G) To assess whether a stabilized vitamin C analog (ascorbic acid-2-phosphate) (AA2P) enhanced cardiac mesoderm differentiation into cardiomyocytes, day 4 hESC-derived cardiac mesoderm was exposed to BMP4 (30 ng/mL)+XAV939 (1 μM) for 48 hours in the presence or absence of 200 μg/mL AA2P and qPCR was conducted of day 6 populations; qPCR data were normalized such that expression values in the highest-expressing sample was normalized=1.0. […] J) In the mouse embryo, endocardium (progenitors to heart-affiliated endothelium) are marked by transient coexpression of pan-heart marker Nkx2.5 together with endothelial markers (Ferdous et al., 2009; Stanley et al., 2002).

[3] = test system: day 3 hemogenic precursors; assay: Hemogenic precursors into day 5 hematopoietic intermediates
Procedure: (§2) SOX17^mCherry/+ H9 hESCs (referred to as SOX17-mCherry hESCs throughout this study) were routinely propagated in mTeSR1 (StemCell Technologies)+1% penicillin/streptomycin. They were passaged ˜1:12-1:25 as fine clumps using Accutase (Gibco) onto plates precoated with a Geltrex substratum (Gibco) in mTeSR1 medium supplemented with thiazovivin ([…]; a ROCK inhibitor). After overnight plating, hESCs were washed (DMEM/F12) and differentiated towards posterior PS using BMP4 (15-40 ng/mL, R&D Systems), CHIR99021 ([…]), FGF2 (20 ng/mL, Invitrogen) and PIK90 (100 nM, Calbiochem) for 24 hours, with the optional inclusion of Activin (30 ng/mL, R&D Systems) to induce mid PS. Day 1 mid or posterior PS was subsequently washed (DMEM/F12) and further differentiated using BMP4 (40 ng/mL), GDC-0941 (0.25-2.5 μM, Cellagen Technology), Forskolin (10 μM, Tocris), SB-505124 ([…]), VEGF (100 ng/mL, R&D Systems), XAV939 (1 μM, Tocris) and ascorbic acid-2-phosphate (200 μg/mL, Sigma) for 24 hours. Day 2 cultures were further directed into the definitive hematopoietic lineage/hemogenic precursors by Activin A (15 ng/mL), GDC-0941 (0.25-2.5 μM), VEGF (100 ng/mL), XAV939 (1 μM) and ascorbic acid-2-phosphate (200 μg/mL) for 24 hours. Day 3 definitive hematopoietic progenitors were subsequently differentiated into early Runx1^lowGfi1^low hemogenic intermediates through day 4-5 treatment with BMP4 (50 ng/mL), TTNPB (500 nM), VEGF (100 ng/mL) and XAV939 (1 μM) for 48 hours, supplemented with SB-505124 (2 μM) on day 5. Day 5 populations were then dissociated into single cells, counted and reaggregated in individual wells of a low-adhesion V-bottom or U-bottom 96-well plate (e.g., Thermo Fisher, catalog no. 249952) with ˜15,000-20,000 cells seeded per well. Aggregates were cultured for 48 additional hours until day 7 in BMP4 (50 ng/mL), TTNPB (500 nM), VEGF (100 ng/mL), XAV939 (1 μM), SB-505124 (2 μM), SCF (25-50 ng/mL, R&D Systems), IL6 (10 ng/mL, R&D Systems) and IL6RA (250-1000 ng/mL, R&D Systems). All differentiation was conducted in serum-free CDM2 fully-defined basal media.

[4] = test system: lateral mesoderm; assay: Forelimb versus hindlimb progenitor specification from lateral mesoderm; settings: RA signaling activated for 24 hours during lateral mesoderm induction (D1-2)
Procedure: Undifferentiated hPSCs (wild-type H7 as well as TBX5-Venus V19-2 H9 hESCs) were maintained in mTeSR1 media on Geltrex-coated plates. As described, they were differentiated into mid primitive streak for 24 hours (D0-1; 30 ng/mL Activin+40 ng/mL BMP4+6 μM CHIR99021+20 ng/mL FGF2+100 nM PIK90) and subsequently differentiated into lateral mesoderm (D1-2; 1 μM A-83-01+30 ng/mL BMP4+1 μM C59), with the inclusion of 50 nM of TTNPB or 2 μM ATRA on D1-2 for trunk lateral mesoderm that was subsequently competent for forelimb differentiation.
Day 2 trunk lateral mesoderm was differentiated into day 3 forelimb progenitors (D2-3; 1 μM A-83-01+1 μM DMH1+3 μM CHIR99021). By contrast, day 2 non-trunk lateral mesoderm was differentiated into day 3 hindlimb progenitors (D2-3; 25 ng/mL Activin+1 μM DMH1+3 μM CHIR99021).

[5] = test system: SOX17-mCherry hESCs; assay: Hematopoietic mesoderm and SOX17+CD34+ hemogenic precursor specification
Procedure: as §2

[6] = test system: day 5 hematopoietic intermediates; assay: Day 5-7 continued differentiation of hematopoietic intermediates, factor withholding; settings: individually withholding the factor from the 8 factors, 48 hours
Procedure: as §2

[7] = test system: hESC-derived cardiac mesoderm; assay: Cardiac mesoderm differentiation into cardiovascular fates, qPCR; settings: added to WNT blockade with BMP activation
Procedure: Day 2 lateral mesoderm was differentiated into day 4 cardiac mesoderm by treating them with 1 μM A8301+30 ng/mL BMP4+1 μM C59+20 ng/mL FGF2 for 48 hrs, or alternatively, with 1 μM A8301+30 ng/mL BMP4+20 ng/mL FGF2 for 24 hrs followed by 25 ng/mL Activin+30 ng/mL BMP4+1 μM C59 for the next 24 hrs (schema in FIG. 5E; positive effect of mid-stage Activin shown in FIG. 12K). Subsequently, day 4 cardiac mesoderm was briefly washed (DMEM/F12) and treated with 30 ng/mL BMP4+1 μM XAV939+200 μg/mL 2-phospho-ascorbic acid (Sigma) for 48-96 hrs to yield day 6-8 cardiomyocyte-containing populations. Spontaneously contracting cardiomyocyte foci were evident from day 8 onwards.
as §1

SMILES: Cc1cc(-c2ccc(CC(=O)Nc3ccc(-c4cccnc4)cc3)cc2)ccn1 [C59, 4-(2-Methyl-4-pyridinyl)-N-[4-(3-pyridinyl)phenyl]benzeneacetamide]
- sclerotome fate induction [1]: efficiently induced the sclerotome fate
- lateral mesoderm fate (qPCR) ([2]; day 2 lateral mesoderm, SB-505124+BMP4 with CHIR99021 or C59, 24 hours): induced an anterior lateral mesoderm/cardiac mesoderm fate
- pan-lateral mesoderm marker FOXF1 expression ([2]; last 12 hrs C59 or 3 μM CHIR in addition to BS): not markedly changed

SMILES: C/C(=C\c1ccc(C(=O)O)cc1)c1ccc2c(c1)C(C)(C)CCC2(C)C [TTNPB]
- TBX20 expression ([3]; day 5): important to downregulate TBX20 expression
- RUNX1 expression by day 5 ([3]; withdrawal of the factor from BMP, VEGF, XAV939, TTNPB): crippled RUNX1 expression
- forelimb transcription factor TBX5 expression on D3 [4]: paramount for lateral mesoderm to subsequently express key forelimb transcription factor TBX5

SMILES: O=c1[nH]c(-c2ccc(C(F)(F)F)cc2)nc2c1CSCC2 [XAV939, 3,5,7,8-Tetrahydro-2-[4-(trifluoromethyl)phenyl]-4H-thiopyrano[4,3-d]pyrimidin-4-one]
- SOX17+ cells formed by day 3 ([5]; treatment on day 2-3, 24 hours): doubled the formation of SOX17^+ cells
- GATA1 expression ([3]; day 5): pivotal to prevent BMP-induced GATA1 expression
- GFI1B expression [6]: strongly diminished

SMILES: O=C1O[C@H]([C@@H](O)CO)C(O)=C1OP(=O)(O)O [ascorbic acid-2-phosphate]
- cardiomyocyte differentiation [7]: further enhanced
- efficiency of CD34+ progenitors produced by day 3 ([5]; included on days 2 and 3): moderately enhanced the efficiency of CD34^+ progenitors
